The record followed here is patent publication US7947695B2, “5-membered annelated heterocyclic pyrimidines as kinase inhibitors” (Janssen Pharmaceutica NV, priority 2005, dated 2011).

Chain of CDK4/cyclinD1 (P11802 whole entry): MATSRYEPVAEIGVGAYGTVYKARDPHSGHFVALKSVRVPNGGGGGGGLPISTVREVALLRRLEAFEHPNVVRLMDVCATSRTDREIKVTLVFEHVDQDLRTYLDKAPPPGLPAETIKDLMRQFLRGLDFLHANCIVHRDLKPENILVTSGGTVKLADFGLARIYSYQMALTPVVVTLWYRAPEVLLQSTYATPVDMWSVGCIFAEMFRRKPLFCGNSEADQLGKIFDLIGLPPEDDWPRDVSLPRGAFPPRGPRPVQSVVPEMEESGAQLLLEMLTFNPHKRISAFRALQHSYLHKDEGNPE
Chain of CDK4/cyclinD1 (P24385 whole entry partner): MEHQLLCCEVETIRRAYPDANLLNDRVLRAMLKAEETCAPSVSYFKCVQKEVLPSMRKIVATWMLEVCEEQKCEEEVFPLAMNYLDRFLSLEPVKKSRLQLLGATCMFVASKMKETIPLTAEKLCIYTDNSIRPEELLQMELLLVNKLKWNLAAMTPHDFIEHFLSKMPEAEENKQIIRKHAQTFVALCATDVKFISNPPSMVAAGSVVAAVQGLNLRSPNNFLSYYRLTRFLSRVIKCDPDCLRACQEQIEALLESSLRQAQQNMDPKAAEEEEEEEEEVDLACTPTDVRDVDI

One test concerns the target CDK4/cyclinD1 (Homo sapiens, UniProt P11802). Put plainly: In vitro filtration assay for CDK4 inhibitory activity (pRb phosphorylation, [33P]-ATP). The format is biochemical. Particulars: GST-pRb substrate, 1 μM unlabeled ATP, 25° C. 45 minutes, read-out: cdk4 filter (pIC50) (converted). The protocol: Compounds of the present invention were tested in an in vitro filtration assay assessing CDK4 activity by means of its pRb-phosphorylation activity using [^33P]-ATP as phosphor donor. The radioactive phosphorylated pRb is then captured on filtermats and the incorporated [^33P] quantitated using a phosphorage storage screen.
The CDK4 kinase reaction is performed at 25° C. for 45 minutes in a 96-well microtiterplate. The 25 μl reaction volume contains 50 mM Hepes pH 7.5, 10 mM NaF, 10 mM MgCl2, 1 mM Na3VO4, 1 μM unlabeled ATP, 1 mM DTT, 0.5 μCi AT^33P, 0.76 μg/well GST-pRb, 50 ng CDK4/cyclinD1/well and 0.2% compound in 100% DMSO.
(§1) The reaction is stopped by adding 5 μl of a 3% phosphoric acid solution. 10 μl of the reaction mixture is then spotted onto a Filtermat P30 filter (Wallac) and washed 3 times for 5 min. in 75 mM phosphoric acid and 1 time for 5 min. in methanol prior to drying and quantification on the Typhoon (Amersham) using a phosphorage storage screen.
(§2) For each experiment, controls (containing enzyme (complex) and DMSO without compound), a blank incubation (containing DMSO but no enzyme (complex) or compound) and samples (containing enzyme (complex) and compound dissolved in DMSO) were run in parallel. All compounds tested were dissolved and eventually further diluted in DMSO. […] In each test, the blank value was subtracted from both the control and the sample values. The control sample represented maximal enzyme activity. For each sample, the amount of cpm was expressed as a percentage of the mean cpm value of the controls. When appropriate, IC50-values (concentration of the drug, needed to reduce the enzyme activity to 50% of the control) were computed using linear interpolation between the experimental points just above and below the 50% level. Herein the effects of test compounds are expressed as pIC50 (the negative log value of the IC50-value).
Take `CN1CCN(c2ccc(Nc3ncc4cnn([C@H]5C[C@@H]6CC[C@H]5C6)c4n3)cc2)CC1` (single isomer, unassigned) [Co. No. 23]: the IC50 is 5.01 nM.

Turning to `CN1CCN(Cc2ccc(Nc3ncc4cnn(C5CCCCC5)c4n3)cc2)CC1` [Co. No. 2], the IC50 was 3.16 nM.

For the compound `CN1CCN(C(=O)c2ccc(Nc3ncc4cnn(C5CCCCC5)c4n3)cc2)CC1` [Co. No. 3], the IC50 is 6.31 nM.

Regarding `c1cc(Nc2ncc3cnn(C4CCCCC4)c3n2)ccc1CNCCN1CCOCC1` [Co. No. 4], the IC50 was 2.51 nM.

As to `OCCN1CCN(c2ccc(Nc3ncc4cnn(C5CCCCC5)c4n3)cc2)CC1` [Co. No. 15], the IC50 is 10 nM.

Turning to `OCCN1CCN(Cc2ccc(Nc3ncc4cnn(C5CCCCC5)c4n3)cc2)CC1` [Co. No. 37], the IC50 is 7.94 nM.

Turning to `CN1CCC(NCc2ccc(Nc3ncc4cnn(C5CCCCC5)c4n3)cc2)CC1` [Co. No. 60], the IC50 is 7.94 nM.

`CN1CCN(c2ccc(Nc3ncc4cnn([C@H]5C[C@@H]6CC[C@H]5C6)c4n3)cc2)CC1` [compound 16]: the IC50 is 31.6 nM.

Consider `c1cc(N2CCOCC2)ncc1Nc1ncc2cnn(C3CCCCC3)c2n1` [compound 17], for which the IC50 is 20 nM.

Regarding `CN1CCN(c2ccc(Nc3ncc4cnn(C5CCCCC5)c4n3)cc2Cl)CC1` [compound 18], the IC50 was 251 nM.

On to `CC(=O)N1CCN(c2ccc(Nc3ncc4cnn(C5CCCCC5)c4n3)cc2)CC1` [compound 19], for which the IC50 is 5010 nM.

Take `OC1CCN(c2ccc(Nc3ncc4cnn(C5CCCCC5)c4n3)cc2)CC1` [compound 20]: the IC50 is 12.6 nM.

On to `NS(=O)(=O)N1CCN(c2ccc(Nc3ncc4cnn(C5CCCCC5)c4n3)cc2)CC1` [compound 21], for which the IC50 is 39.8 nM.

Consider `c1ccc(N2CCN(c3ccc(Nc4ncc5cnn(C6CCCCC6)c5n4)cc3)CC2)nc1` [compound 22], for which the IC50 was 501 nM.

Regarding `CC(C)(O)CN1CCN(c2ccc(Nc3ncc4cnn(C5CCCCC5)c4n3)cc2)CC1` [compound 24], the IC50 is 126 nM.

As for `CC(C)(C)OC(=O)N1CCN(c2ccc(Nc3ncc4cnn(C5CCCCC5)c4n3)cc2)CC1` [compound 25], the IC50 was 1000 nM.

The target in a further test is T1, AURORA A (Homo sapiens, UniProt O14965).
T1 sequence (O14965 1-403): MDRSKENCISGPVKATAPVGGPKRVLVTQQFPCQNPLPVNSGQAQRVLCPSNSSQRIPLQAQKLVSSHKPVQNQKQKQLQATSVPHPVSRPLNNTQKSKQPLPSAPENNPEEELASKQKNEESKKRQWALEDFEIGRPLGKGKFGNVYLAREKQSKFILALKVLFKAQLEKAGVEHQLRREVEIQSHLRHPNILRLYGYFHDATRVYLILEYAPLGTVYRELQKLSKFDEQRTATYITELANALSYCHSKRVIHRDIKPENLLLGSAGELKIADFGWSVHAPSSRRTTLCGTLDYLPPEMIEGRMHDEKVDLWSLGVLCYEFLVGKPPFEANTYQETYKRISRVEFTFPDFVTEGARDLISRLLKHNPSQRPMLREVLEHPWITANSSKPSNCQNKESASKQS
The test is described as follows: In vitro filtration assay for AURORA A inhibitory activity. Format: biochemical. As to conditions: Kemptide substrate, 1 μM unlabeled ATP, 25° C. 40 minutes, read-out: Aurora A see C.2 (pIC50) (converted). The protocol: Compounds of the present invention were tested in an in vitro filtration assay assessing AURORA A activity by means of its substrate-phosphorylation activity using [^33P]-ATP as phosphor donor. The radioactive phosphorylated substrate is then captured on filtermats and the incorporated [^33P] quantitated using a phosphorage storage screen.
The Aurora-A kinase reaction is performed at 25° C. for 40 minutes in a 96-well microtiterplate. The 25 μl reaction volume contains 12 mM MOPS pH 7, 0.4 mM EDTA, 0.002% Brij35, 1% glycerol, 0.02% beta-mercapto-ethanol, 0.2 mg/ml BSA, 1 μM unlabeled ATP, […] [^33P]-ATP, 200 μM Kemptide, 3 ng Aurora A/well and 0.2% compound in 100% DMSO.
as §1, §2
Regarding `CN1CCN(c2ccc(Nc3ncc4cnn([C@H]5C[C@@H]6CC[C@H]5C6)c4n3)cc2)CC1` (single isomer, unassigned) [Co. No. 23], the IC50 was 100 nM.

`CN1CCN(Cc2ccc(Nc3ncc4cnn(C5CCCCC5)c4n3)cc2)CC1` [Co. No. 2]: the IC50 was 501 nM.

In the case of `CN1CCN(C(=O)c2ccc(Nc3ncc4cnn(C5CCCCC5)c4n3)cc2)CC1` [Co. No. 3], the IC50 was 501 nM.

Take `c1cc(Nc2ncc3cnn(C4CCCCC4)c3n2)ccc1CNCCN1CCOCC1` [Co. No. 4]: the IC50 is 1000 nM.

Consider `OCCN1CCN(c2ccc(Nc3ncc4cnn(C5CCCCC5)c4n3)cc2)CC1` [Co. No. 15], for which the IC50 was 631 nM.

Take `OCCN1CCN(Cc2ccc(Nc3ncc4cnn(C5CCCCC5)c4n3)cc2)CC1` [Co. No. 37]: the IC50 was 200 nM.

With `CN1CCC(NCc2ccc(Nc3ncc4cnn(C5CCCCC5)c4n3)cc2)CC1` [Co. No. 60], the IC50 was 1580 nM.

Take `CN1CCN(c2ccc(Nc3ncc4cnn([C@H]5C[C@@H]6CC[C@H]5C6)c4n3)cc2)CC1` [compound 16]: the IC50 is 398 nM.

Regarding `c1cc(N2CCOCC2)ncc1Nc1ncc2cnn(C3CCCCC3)c2n1` [compound 17], the IC50 was 794 nM.

Turning to `CN1CCN(c2ccc(Nc3ncc4cnn(C5CCCCC5)c4n3)cc2Cl)CC1` [compound 18], the IC50 was 158 nM.

As for `CC(=O)N1CCN(c2ccc(Nc3ncc4cnn(C5CCCCC5)c4n3)cc2)CC1` [compound 19], the IC50 is greater than 10000 nM.

With `OC1CCN(c2ccc(Nc3ncc4cnn(C5CCCCC5)c4n3)cc2)CC1` [compound 20], the IC50 is 501 nM.

With `NS(=O)(=O)N1CCN(c2ccc(Nc3ncc4cnn(C5CCCCC5)c4n3)cc2)CC1` [compound 21], the IC50 is 200 nM.

On to `c1ccc(N2CCN(c3ccc(Nc4ncc5cnn(C6CCCCC6)c5n4)cc3)CC2)nc1` [compound 22], for which the IC50 is 39.8 nM.

In the case of `CC(C)(O)CN1CCN(c2ccc(Nc3ncc4cnn(C5CCCCC5)c4n3)cc2)CC1` [compound 24], the IC50 was 251 nM.

For `CC(C)(C)OC(=O)N1CCN(c2ccc(Nc3ncc4cnn(C5CCCCC5)c4n3)cc2)CC1` [compound 25], the IC50 is 100 nM.

The target of another test is AURORA B (Homo sapiens, UniProt Q96GD4). Put plainly: In vitro filtration assay for AURORA B inhibitory activity. The format is biochemical. As to conditions: peptide (C(LRRWSLG)×4), 1 μM unlabeled ATP, 25° C. 40 minutes, read-out: Aurora B see C.3 (pIC50) (converted). The protocol: Compounds of the present invention were tested in an in vitro filtration assay assessing AURORA B activity by means of its substrate-phosphorylation activity using [^33P]-ATP as phosphor donor. The radioactive phosphorylated substrate is then captured on filtermats and the incorporated [^33P] quantitated using a phosphorage storage screen.
Chain of AURORA B (Q96GD4 whole entry): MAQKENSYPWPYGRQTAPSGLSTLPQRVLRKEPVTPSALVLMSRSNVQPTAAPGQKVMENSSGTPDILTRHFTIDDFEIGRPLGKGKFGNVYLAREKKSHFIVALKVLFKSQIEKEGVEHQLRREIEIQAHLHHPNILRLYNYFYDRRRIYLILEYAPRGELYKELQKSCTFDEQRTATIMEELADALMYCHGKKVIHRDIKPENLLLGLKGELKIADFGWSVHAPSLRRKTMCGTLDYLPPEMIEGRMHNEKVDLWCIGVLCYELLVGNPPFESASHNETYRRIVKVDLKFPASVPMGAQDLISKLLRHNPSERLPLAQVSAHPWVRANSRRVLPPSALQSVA
The Aurora-B kinase reaction is performed at 25° C. for 40 minutes in a 96-well microtiterplate. The 25 μl reaction volume contains 60 mM Hepes pH 7.5, 3 mM MgCl2, 3 mM MnCl2, 3 μM Na3VO4, 50 μg/ml PEG20000, 1 μM unlabeled ATP, 1 mM DTT, 0.2 μCi AT^33P, 0.25 μg/well peptide (C(LRRWSLG)×4),100 ng Aurora-B/well and 0.2% compound in 100% DMSO. The reaction is stopped by adding 5 μl of a 3% phosphoric acid solution. 10 μl of the reaction mixture is then spotted onto a Filtermat P30 filter (Wallac) and washed 3 times for 5 min. in 75 mM phosphoric acid and 1 time for 5 min. in methanol prior to drying and quantification on the Typhoon (Amersham) using a phosphorage storage screen.
as §2
As for `CN1CCN(c2ccc(Nc3ncc4cnn([C@H]5C[C@@H]6CC[C@H]5C6)c4n3)cc2)CC1` (single isomer, unassigned) [Co. No. 23], the IC50 was 158 nM.

On to `CN1CCN(Cc2ccc(Nc3ncc4cnn(C5CCCCC5)c4n3)cc2)CC1` [Co. No. 2], for which the IC50 is greater than 10000 nM.

In the case of `CN1CCN(C(=O)c2ccc(Nc3ncc4cnn(C5CCCCC5)c4n3)cc2)CC1` [Co. No. 3], the IC50 is greater than 10000 nM.

As to `c1cc(Nc2ncc3cnn(C4CCCCC4)c3n2)ccc1CNCCN1CCOCC1` [Co. No. 4], the IC50 is greater than 1580 nM.

Take `OCCN1CCN(c2ccc(Nc3ncc4cnn(C5CCCCC5)c4n3)cc2)CC1` [Co. No. 15]: the IC50 is greater than 10000 nM.

Consider `OCCN1CCN(Cc2ccc(Nc3ncc4cnn(C5CCCCC5)c4n3)cc2)CC1` [Co. No. 37], for which the IC50 was 398 nM.

On to `CN1CCC(NCc2ccc(Nc3ncc4cnn(C5CCCCC5)c4n3)cc2)CC1` [Co. No. 60], for which the IC50 is greater than 10000 nM.

`CN1CCN(c2ccc(Nc3ncc4cnn([C@H]5C[C@@H]6CC[C@H]5C6)c4n3)cc2)CC1` [compound 16]: the IC50 was greater than 10000 nM.

With `c1cc(N2CCOCC2)ncc1Nc1ncc2cnn(C3CCCCC3)c2n1` [compound 17], the IC50 is greater than 10000 nM.

On to `CN1CCN(c2ccc(Nc3ncc4cnn(C5CCCCC5)c4n3)cc2Cl)CC1` [compound 18], for which the IC50 is greater than 10000 nM.

For the compound `CC(=O)N1CCN(c2ccc(Nc3ncc4cnn(C5CCCCC5)c4n3)cc2)CC1` [compound 19], the IC50 was greater than 10000 nM.

For `OC1CCN(c2ccc(Nc3ncc4cnn(C5CCCCC5)c4n3)cc2)CC1` [compound 20], the IC50 is greater than 10000 nM.

Regarding `NS(=O)(=O)N1CCN(c2ccc(Nc3ncc4cnn(C5CCCCC5)c4n3)cc2)CC1` [compound 21], the IC50 is 3160 nM.

As to `c1ccc(N2CCN(c3ccc(Nc4ncc5cnn(C6CCCCC6)c5n4)cc3)CC2)nc1` [compound 22], the IC50 is greater than 10000 nM.

For the compound `CC(C)(O)CN1CCN(c2ccc(Nc3ncc4cnn(C5CCCCC5)c4n3)cc2)CC1` [compound 24], the IC50 was 3160 nM.

As for `CC(C)(C)OC(=O)N1CCN(c2ccc(Nc3ncc4cnn(C5CCCCC5)c4n3)cc2)CC1` [compound 25], the IC50 was 3160 nM.
